Results from the NIST ThermoML archive (doi:10.1016/j.jct.2015.06.025).

Assay: mn = molality of the nth substance listed, in mol/kg
Settings: 101.3 kPa, Liquid; for viscosity: Capillary tube (Ostwald / Ubbelohde) method; for mass density: Pycnometric method

CCCC(CCC)C(=O)[O-].[Na+] [sodium valproate] + O
Settings	mass density, 288.15 K [kg/m3]	mass density, 298.15 K [kg/m3]	mass density, 308.15 K [kg/m3]	viscosity, 288.15 K [mPa·s]	viscosity, 298.15 K [mPa·s]	viscosity, 308.15 K [mPa·s]
m1 = 0.01	–	997.43	994.42	–	0.8988	0.7252
m1 = 0.0102	999.51	–	–	1.153	–	–
m1 = 0.0191	999.84	997.79	–	1.162	0.9064	–
m1 = 0.02	–	–	994.78	–	–	0.7296
m1 = 0.0245	1000.06	997.98	–	1.169	0.9122	–
m1 = 0.0303	–	–	995.13	–	–	0.7345
m1 = 0.0305	1000.3	998.22	–	1.177	0.9166	–
m1 = 0.0401	1000.66	998.56	–	1.187	0.9238	–
m1 = 0.0405	–	–	995.53	–	–	0.7397
m1 = 0.0453	1000.87	998.75	–	1.195	0.9268	–
m1 = 0.0497	–	–	995.89	–	–	0.7444
m1 = 0.0501	1001.04	998.91	–	1.201	0.9318	–
m1 = 0.0605	–	–	996.24	–	–	0.7499
m1 = 0.0608	1001.43	999.3	–	1.213	0.9391	–
m1 = 0.0706	1001.79	999.64	–	1.225	0.9476	–
m1 = 0.0708	–	–	996.63	–	–	0.7552
m1 = 0.08	1002.15	999.96	–	1.238	0.9558	–
m1 = 0.0844	–	–	997.07	–	–	0.7617
m1 = 0.0902	–	–	997.29	–	–	0.7645
m1 = 0.0924	1002.59	1000.39	–	1.252	0.9653	–
m1 = 0.0959	–	–	997.48	–	–	0.7686
m1 = 0.101	–	–	997.66	–	–	0.7716
m1 = 0.1021	1002.93	1000.72	–	1.262	0.9733	–
m1 = 0.1154	–	–	998.16	–	–	0.7769
